Biological target: T1, CDK16 (PCTK1)/cyclin Y (Homo sapiens, UniProt Q00536)
T1 construct: purchased Thermo Fisher Scientific (Life Technologies) SelectScreen
Test: SelectScreen LanthaScreen
Type: binding
Settings: read-out: % displacement
How it was run: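 SelectScreen broad panel; activity (Z'LYTE, Adapta) plus binding formats. ATP: Km app for CSF1R Z'LYTE; 10 for CAMK1 Adapta. Readout = % per kinase.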

T1 sequence (Q00536 whole entry): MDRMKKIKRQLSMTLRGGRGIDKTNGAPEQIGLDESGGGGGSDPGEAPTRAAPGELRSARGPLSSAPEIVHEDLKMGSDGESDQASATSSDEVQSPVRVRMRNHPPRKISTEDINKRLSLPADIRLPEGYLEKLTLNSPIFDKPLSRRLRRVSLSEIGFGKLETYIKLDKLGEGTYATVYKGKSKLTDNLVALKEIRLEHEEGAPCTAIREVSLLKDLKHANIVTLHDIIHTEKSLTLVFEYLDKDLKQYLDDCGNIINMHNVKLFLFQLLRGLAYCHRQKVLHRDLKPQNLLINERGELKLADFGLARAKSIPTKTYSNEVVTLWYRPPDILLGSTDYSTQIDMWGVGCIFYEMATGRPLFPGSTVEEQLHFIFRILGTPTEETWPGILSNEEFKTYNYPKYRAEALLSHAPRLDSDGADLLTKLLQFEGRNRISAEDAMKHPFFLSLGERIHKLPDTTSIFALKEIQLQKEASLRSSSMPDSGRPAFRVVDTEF
T1 sequence (Q8ND76 whole entry partner): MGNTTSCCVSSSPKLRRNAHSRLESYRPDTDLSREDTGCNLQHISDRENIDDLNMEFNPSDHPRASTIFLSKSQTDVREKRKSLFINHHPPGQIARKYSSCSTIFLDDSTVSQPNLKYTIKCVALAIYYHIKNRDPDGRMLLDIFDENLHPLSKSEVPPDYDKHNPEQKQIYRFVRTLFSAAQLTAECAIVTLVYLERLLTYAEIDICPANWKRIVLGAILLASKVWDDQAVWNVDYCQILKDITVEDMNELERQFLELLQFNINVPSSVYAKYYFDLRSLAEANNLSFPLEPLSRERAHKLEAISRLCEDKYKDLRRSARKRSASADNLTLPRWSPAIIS

SMILES: CN(C(=O)CN1CCOCC1)c1ccc2sc3c(-c4cccc5c(=O)cc(N6CC7CCC(C6)O7)oc45)cccc3c2c1 [NU5455]
- inhibition at 1 µM: 7%

Reference: PMC6934184, “Selective DNA-PKcs inhibition extends the therapeutic index of localized radiotherapy and chemotherapy” (The Journal of Clinical Investigation, 2019)
